Laboratory results as given in ChEMBL document CHEMBL1123236, “Cardiac glycosides. 7. Sugar stereochemistry and cardiac glycoside activity” (J Med Chem, 1986).

Target: Sodium/potassium-transporting ATPase
Test: Inhibition of hog kidney Na+, K+-dependent ATPase
Type: protein-complex assay, Sus scrofa
Conditions: read-out: I50

In order of falling IC50:
1. C[C@]12CC[C@H](O[C@H]3O[C@H](CO)[C@@H](O)[C@H](O)[C@H]3O)C[C@H]1CC[C@@H]1[C@@H]2CC[C@]2(C)[C@@H](C3=CC(=O)OC3)CC[C@]12O (stereo in doubt; 3c)  129 nM
2. C[C@]12CC[C@H](O[C@H]3O[C@H](CO)[C@@H](O)[C@H](O)[C@H]3O)C[C@H]1CC[C@@H]1[C@@H]2CC[C@]2(C)[C@@H](C3=CC(=O)OC3)CC[C@]12O (stereo in doubt; 4c)  93.3 nM
3. C[C@]12CC[C@H](O[C@@H]3O[C@@H](CO)[C@H](O)[C@@H](O)[C@H]3O)C[C@H]1CC[C@@H]1[C@@H]2CC[C@]2(C)[C@@H](C3=CC(=O)OC3)CC[C@]12O  87 nM
4. CC12CCC(O[C@H]3O[C@H](CO)[C@H](O)[C@H](O)[C@H]3O)CC1CCC1C2CC[C@]2(C)C(C3=CC(=O)OC3)CCC12O (stereo in doubt; form 1)  64.5 nM
5. C[C@]12CC[C@H](O[C@H]3O[C@H](CO)[C@@H](O)[C@H](O)[C@H]3O)C[C@H]1CC[C@@H]1[C@@H]2CC[C@]2(C)[C@@H](C3=CC(=O)OC3)CC[C@]12O (stereo in doubt; 4a)  60.3 nM
6. C[C@]12CC[C@H](O[C@H]3O[C@H](CO)[C@@H](O)[C@H](O)[C@H]3O)C[C@H]1CC[C@@H]1[C@@H]2CC[C@]2(C)[C@@H](C3=CC(=O)OC3)CC[C@]12O (stereo in doubt; 3d)  38.9 nM
7. CC12CCC(O[C@H]3O[C@H](CO)[C@H](O)[C@H](O)[C@H]3O)CC1CCC1C2CC[C@]2(C)C(C3=CC(=O)OC3)CCC12O (stereo in doubt; form 2)  17.8 nM
8. C[C@]12CC[C@H](O[C@H]3O[C@H](CO)[C@@H](O)[C@H](O)[C@H]3O)C[C@H]1CC[C@@H]1[C@@H]2CC[C@]2(C)[C@@H](C3=CC(=O)OC3)CC[C@]12O (stereo in doubt; 4b)  16 nM
9. C[C@]12CC[C@H](O[C@@H]3O[C@@H](CO)[C@@H](O)[C@H](O)[C@@H]3O)C[C@H]1CC[C@@H]1[C@@H]2CC[C@]2(C)[C@@H](C3=CC(=O)OC3)CC[C@]12O (stereo in doubt; form 2)  10.7 nM
10. C[C@]12CC[C@H](O[C@H]3O[C@H](CO)[C@@H](O)[C@H](O)[C@H]3O)C[C@H]1CC[C@@H]1[C@@H]2CC[C@]2(C)[C@@H](C3=CC(=O)OC3)CC[C@]12O (stereo in doubt; 4d)  10.5 nM
11. C[C@H]1O[C@@H](O[C@H]2CC[C@@]3(C)[C@H](CC[C@@H]4[C@@H]3CC[C@]3(C)[C@@H](C5=CC(=O)OC5)CC[C@]43O)C2)C[C@H](O)[C@@H]1O  7.04 nM
12. C[C@@H]1O[C@@H](O[C@H]2CC[C@@]3(C)[C@H](CC[C@@H]4[C@@H]3CC[C@]3(C)[C@@H](C5=CC(=O)OC5)CC[C@]43O)C2)[C@H](O)[C@H](O)[C@H]1O (stereo in doubt; form 2)  6.79 nM
13. C[C@@H]1O[C@@H](O[C@H]2CC[C@@]3(C)[C@H](CC[C@@H]4[C@@H]3CC[C@]3(C)[C@@H](C5=CC(=O)OC5)CC[C@]43O)C2)[C@H](O)[C@H](O)[C@H]1O (stereo in doubt; form 1)  4.79 nM
